In PMC4842970, “Bioactivity Focus of α-Cyano-4-hydroxycinnamic acid (CHCA) Leads to Effective Multifunctional Aldose Reductase Inhibitors” (Scientific Reports, 2016):

What was measured:
[1] = ORACFL radical absorbance capacity assay
Source text: With the CHCA scaffold, we hypothesized that 5a–j should have antioxidant activity. Therefore, a radical absorbance capacity assay (ORACFL)[41] was employed to assess their capacities. This method is based on the inhibition of peroxyl-radical-induced oxidation initiated by thermal decomposition of azo-compounds, in this case 2,2′-azo-bis (2-amidinopropane) dihydrochloride (AAPH). Trolox (6-hydroxy-2,5,7,8-tetramethylchroman-2-carboxylic acid) was used as a standard reference. Data is expressed as micromoles of Trolox equivalents (TE) per […] of sample (μmol TE/ml or U/ml).
Antioxidant capacity was determined according to the procedure described previously.

[2] = Stability in DMEM containing 5% FBS (RP-HPLC); assay type: in vitro ADME; conditions: 37 °C, 12 h incubation
Method: Predicted from its structure, the stability of 5f will be good and the toxicity will be low. […] After 12 h incubation, 86% of 5f remained intact.
The sample was incubated in high-glucose Dulbecco’s modified Eagle’s medium (DMEM) containing 5% fetal calf serum (FBS) for a period of 48 h. Analyses were scheduled at 0.5, 1.0, 4.0, 8.0, 12.0, 24.0, and 48.0 h. Reverse-phase high performance liquid chromatography (RP-HPLC) was performed on a Cosmosil column (C18, […], 4.6 × 250 mm) using an LC-100 fluid unit (Shanghai Wufeng Inc., China) with a tunable LC-100 UV detector. The eluent was various percentages of methanol containing pure water (flow rate: 1.0 ml/min; λ: 254 nm). The experiments were repeated at least 3 times and compared with the control experiment. The results were shown in Supporting Infromation.

HEK293 cells = assay: Cytotoxicity, MTT growth inhibition; assay type: cell-based, human; conditions: 500 μM
Method: In another aspect, the toxicity was evaluated by the growth inhibition of 5f against human embryonic kidney 293 (HEK293) cells. It was shown that 5f was nontoxic to HEK293 cells even at high concentration of 500 μM (Supplementary B of Fig. S2).
HEK293 cells were purchased from Centre of Cells Resource, Shanghai Institute of Life Science, Chinese Academy of Sciences, P. R. China. HEK293 cells in the exponential phase were plated on a 96-well cell culture plate with 5 × 10^3 cells in each well supplemented with 100 U/ml of penicillin and 100 μg/ml of streptomycin, which were cultured in a humidified atmosphere of 95% and 5% CO2 at 37 °C for 24 h. The cells were adherent. […] 6 wells were set for each group. The wells without addition of the drug were set as controls. The cells in each of the wells were cultured for another 24 h. Then 15 μl of MTT (5 mg/mL) was added to each well. The plates were then incubated at 37 °C for 4 hours, then the supernatants were discarded. 150 μL of DMSO solutions were added to each of the wells and the solutions were mixed thoroughly. Then the plates were incubated at 37 °C for another 10 minutes. Each sample was mixed again and the resulting formazan was measured by its absorbance at 570 nm using a BIO-RAD680 plate reader (Thermo, USA). The experiments were repeated at least 3 times and compared with the control experiment. […]

ALR2 = assay: AR (ALR2) activity in glucose-treated embryos (chicken AR ELISA kit); assay type: in vivo; conditions: glucose-treated chick embryos, EDD 5, dose 1 μM
Method: As expected, treatment of 5f decreased ALR2 activity in a dose-dependent manner. […] However, EDA, which is a clinical radical scavenger, was shown no effect on the inhibition of ALR2.
Embryos on EDD 5 were homogenized with chicken saline and centrifuged (4 °C, 10000 rpm, 10 min). The supernatant was used for measuring AR activity in the sample. A chicken AR ELISA kit (Jianglai Biotechnology, China) were used for detection. The concentration of AR in the samples was then determined by comparing the OD of the samples to the standard curve. The sorbitol contents of the chick embryo were determined by a Sorbitol Colorimetric Assay Kit (BioVision, USA). In the assay, sorbitol is oxidized to fructose with the proportional development of intense color with an absorbance maximum at 560 nm.

[3] = Plasma glucose in chick embryos; assay type: in vivo; conditions: glucose-treated chick embryos, EDD 5
Method: Figure 4 5f restored neural tube development and marker expression in chick embryos on EDD 5. Glucose concentration (A) and Pax3 protein expression (B) were determined in chick embryos. The plasma glucose concentration was measured using a glucose oxidase-coupled spectrophotometric assay kit. Proteins were detected using the monoclonal antibody anti-Pax3 diluted 1:1000 (DSHB, USA) and visualized using anti-mouse IgG conjugated with horseradish peroxidase (HRP) and Pierce ECL Western Blotting Substrate (Thermo Fisher Scientific, USA) as the substrate of HRP. […] Values were expressed as mean ± SD in each group (n = 10). *P < 0.05, **P < 0.01 vs. control. ^#P < 0.05, ^##P < 0.01 vs. glucose.
The ventricles of embryos were punctured with a 20-gauge needle. At this early embryonic age, 30–40 μL of blood was obtained from the embryos on each EDD 5. The blood containing heparin was centrifuged at 3000 rpm for 15 min. The plasma glucose concentration was measured using a glucose oxidase-coupled spectrophotometric assay kit obtained from Sigma Chemical Co. (St. Louis, MO, USA) according to the manufacturer’s instructions.

CC(=O)N[C@H](COCc1ccccc1)C(=O)NCCCNC(=O)/C(C#N)=C/c1ccc(O)cc1 [Compound 5f, (R,E) - N - (3-(2-acetamido-3-(benzyloxy)propanamido)propyl)-2-cyano-3-(4-hydroxyphenyl)acrylamide] showed an ORAC ([1]; 3.125 μg/ml) of 68.1 ± 2.3 U/ml, an ORAC ([1]; 6.25 μg/ml) of 66.5 ± 1.6 U/ml and an ORAC ([1]; 12.5 μg/ml) of 65.7 ± 5.1 U/ml. The ORAC value ([1]; concentration of 3.125 μM) was 65.7 U/ml, the remained intact [2] was 86% and the “inhibition rate (growth inhibition)” value (HEK293 cells) was 19.2%. For the same compound, the “ALR2 activity in embryo” value (ALR2) was “close to that of the control” and the plasma glucose level [3] was “did not lower”.
